Reference: patent US6800630B2, “Pyrimidine derivatives having antitumor effect” (Shionogi & Co., Ltd., priority 2000, dated 2004)
≈ marks a conversion by molar mass, not a printed value.

test system: human pancreas cancer PANC-1; assay: In vitro cell growth inhibition test, MTT assay; format: cell-based; settings: MTT assay 4 days after compound addition
Text: (§1) Test Example 2 In vitro cell growth inhibition test Cells and MTT assay
(§2) Human squamous lung cancer […], human squamous lung cancer Ma44, human lung adenocarcinoma A549, human colon cancer HT29 and human pancreas cancer PANC-1 were used.

Row | IC50 PANC-1 [ng/mL] | Structure (SMILES)
1 | 7.7 (≈ 0.0185 µM) | CCSC(=Nc1nc(C)ncc1CSc1nnc(-c2ccc(N)cc2)o1)NC [Compound A-13]
2 | 7.5 (≈ 0.0169 µM) | CNC(=Nc1nc(C)ncc1CSc1nnc(-c2ccc([N+](=O)[O-])cc2)o1)OC(C)C [Compound A-34]
3 | 5.4 (≈ 0.0118 µM) | CCNC(=Nc1nc(C)ncc1CSc1nnc(-c2ccc([N+](=O)[O-])cc2)o1)OC(C)C [Compound A-35]
4 | 26 (≈ 0.0566 µM) | CCCNC(=Nc1nc(C)ncc1CSc1nnc(-c2ccc([N+](=O)[O-])cc2)o1)SC [Compound A-4]

test system: human squamous lung cancer Ma44; assay: In vitro cell growth inhibition test, MTT assay; format: cell-based; settings: MTT assay 4 days after compound addition
Text: as §1, §2

Row | Structure (SMILES) | IC50 Ma44 [ng/mL]
5 | CCSC(=Nc1nc(C)ncc1CSc1nnc(-c2ccc(N)cc2)o1)NC [Compound A-13] | 30 (≈ 0.0722 µM)
6 | CNC(=Nc1nc(C)ncc1CSc1nnc(-c2ccc(N)cc2)o1)SC [Compound A-10] | 80 (≈ 0.199 µM)

Results, then the compound that gave them:

Row | IC50 Ma44 [ng/mL] | Structure (SMILES)
7 | 9.1 (≈ 0.0205 µM) | CNC(=Nc1nc(C)ncc1CSc1nnc(-c2ccc([N+](=O)[O-])cc2)o1)OC(C)C [Compound A-34]
8 | 6.9 (≈ 0.0151 µM) | CCNC(=Nc1nc(C)ncc1CSc1nnc(-c2ccc([N+](=O)[O-])cc2)o1)OC(C)C [Compound A-35]
9 | 51 (≈ 0.111 µM) | CCCNC(=Nc1nc(C)ncc1CSc1nnc(-c2ccc([N+](=O)[O-])cc2)o1)SC [Compound A-4]
10 | 42 (≈ 0.0914 µM) | CCNC(=Nc1nc(C)ncc1C(C)Sc1nnc(-c2ccc([N+](=O)[O-])cc2)o1)SC (racemic) [Compound A-22]

test system: human squamous lung cancer RERF-RC-AI; assay: In vitro cell growth inhibition test, MTT assay; format: cell-based; settings: MTT assay 4 days after compound addition
Text: as §1, §2

Row | IC50 RERF-LC-AI [ng/mL] | Structure (SMILES)
11 | 13 (≈ 0.0293 µM) | CNC(=Nc1nc(C)ncc1CSc1nnc(-c2ccc([N+](=O)[O-])cc2)o1)OC(C)C [Compound A-34]
12 | 6.7 (≈ 0.0146 µM) | CCNC(=Nc1nc(C)ncc1CSc1nnc(-c2ccc([N+](=O)[O-])cc2)o1)OC(C)C [Compound A-35]
13 | 30 (≈ 0.0653 µM) | CCCNC(=Nc1nc(C)ncc1CSc1nnc(-c2ccc([N+](=O)[O-])cc2)o1)SC [Compound A-4]

test system: human colon cancer HT29; assay: In vitro cell growth inhibition test, MTT assay; format: cell-based; settings: MTT assay 4 days after compound addition
Text: as §1, §2

Row | IC50 HT-29 [ng/mL] | Structure (SMILES)
14 | 8.9 (≈ 0.0214 µM) | CCSC(=Nc1nc(C)ncc1CSc1nnc(-c2ccc(N)cc2)o1)NC [Compound A-13]
15 | 4.6 (≈ 0.0104 µM) | CNC(=Nc1nc(C)ncc1CSc1nnc(-c2ccc([N+](=O)[O-])cc2)o1)OC(C)C [Compound A-34]
16 | 3.3 (≈ 0.00721 µM) | CCNC(=Nc1nc(C)ncc1CSc1nnc(-c2ccc([N+](=O)[O-])cc2)o1)OC(C)C [Compound A-35]
17 | 23 (≈ 0.05 µM) | CCCNC(=Nc1nc(C)ncc1CSc1nnc(-c2ccc([N+](=O)[O-])cc2)o1)SC [Compound A-4]

test system: human lung adenocarcinoma A549; assay: In vitro cell growth inhibition test, MTT assay; format: cell-based; settings: MTT assay 4 days after compound addition
Text: as §1, §2

Row | IC50 A549 [ng/mL] | Structure (SMILES)
18 | 15 (≈ 0.0361 µM) | CCSC(=Nc1nc(C)ncc1CSc1nnc(-c2ccc(N)cc2)o1)NC [Compound A-13]
19 | 21 (≈ 0.0474 µM) | CNC(=Nc1nc(C)ncc1CSc1nnc(-c2ccc([N+](=O)[O-])cc2)o1)OC(C)C [Compound A-34]
20 | 11 (≈ 0.024 µM) | CCNC(=Nc1nc(C)ncc1CSc1nnc(-c2ccc([N+](=O)[O-])cc2)o1)OC(C)C [Compound A-35]
21 | 38 (≈ 0.0827 µM) | CCCNC(=Nc1nc(C)ncc1CSc1nnc(-c2ccc([N+](=O)[O-])cc2)o1)SC [Compound A-4]

test system: signal derived from Ras oncogene products (DT-R cells, pRRE3-luc transfected v-ki-ras-transformed NIH373 cells); assay: Inhibitory effect against cellular signaling derived from Ras oncogene products: RRE-luciferase reporter, Minimal Active Concentration (MAC) at which DT-C and DT-R activities dissociate; format: cell-based; settings: minimal concentration at which luciferase activities of DT-C and DT-R cells dissociated
Text: (§3) Test Example 1 Inhibitory effect against cellular signaling derived from Ras oncogene products
(§4) Based on the reporter plasmid (pGV-P (Toyo Ink, Japan)), in which luciferase gene was ligated to SV40-derived minimal promoter, we constructed a plasmid designated pRRE3-luc by inserting 3 copies of chemically synthesized oligonucleotides (Sequence: CAGGATATGACTCT, derived from mouse NVL-3 (M. A. Reddy et al.(1992)Mol. Endocrinol., 6, 1051)) into upstream of the promoter. v-ki-ras-transformed NIH373 cells (DT cells, provided by Dr. Makoto Noda (Kyoto Univ., School of medicine)) were transfected with this plasmid by liposome-mediated transfection and transfected cell lines stably incorporated and maintained each plasmid were obtained. We named pGV-P and pRRE3-transfected cell line as DT-C and DT-R, respectively and used in the assay described below.
(§5) i) All the cell lines were cultured in Dulbecco's Modified Essential Medium (DMEM: 10% Fetal Calf Serum(FCS: Hyclone, USA)) including […] kanamycin (Meiji Seika, Japan) in humidified incubator under condition of 5% CO2 at 37° C.
(§6) ii) DT-C and DT-R cells were seeded at 2500 cells/well into flat-bottom 96 well multiplate (Sumitomo bakelite) and incubated for 24 hours.
(§7) iii) Test compounds were prepared as 1 mg/ml DMSO solution.
(§8) iv) The solution of test compounds were added to the culture. Tested compounds are used at the concentration from […] to 0.51 ng/ml with 3-fold dilution.
(§9) v) After 24 hours, the culture supernatant was completely aspirated and 20 μl of cell-lysing solution (PGC-50 (Toyo Ink, Japan)) was added before cells were dried up. In order to lyse the cells completely, multiwell plates were left at room temperature for 10 to 30 min. The plates were wrapped up and stored at −20° C. till the day of measurement.
(§10) i) Melt the samples by putting 96 well multiplate at 37° C. and add 90 μl/well 25 mM Tris (pH 7.5).
(§11) ii) Transfer 50 μl of the sample (110 μl) to the 96 well microplate (Microlite 1 (Dynatech)) for measurement.
(§12) iii) Measure the samples by the luminometer, LUMINOUS CT9000D (Dia-Yatron, Japan). We used Pickagene luminescence kit PGL2000 or LT2.0 (Toyo Ink, Japan) as enzyme substrates for luminescence measurement (50 μl/well).
(§13) i) The luciferase activity of DT-C cells and DT-R cells were plotted in the graph where the relative activity and the compound concentration were expressed as Y-axis and X-axis, respectively. We judged by the degree of dissociation between the activities of DT-C cells and DT-R cells as an index.
ii) Concretely, efficacy of the compound was expressed by two values described below.
a) Among the points of concentration tested, the minimal concentration (Minimal Active Concentration: MAC), at which the activities of DT-C cells and DT-R cells dissociated, was shown as an index of efficacy of the compound.

Row | Structure (SMILES) | MAC (Minimal Active Concentration) [µg/mL]
22 | CCSC(=Nc1nc(C)ncc1CSc1nnc(-c2ccc(N)cc2)o1)NC [Compound A-13] | 0.0137
23 | CNC(=Nc1nc(C)ncc1CSc1nnc(-c2ccc([N+](=O)[O-])cc2)o1)OC(C)C [Compound A-34] | 0.0137
24 | CCNC(=Nc1nc(C)ncc1CSc1nnc(-c2ccc([N+](=O)[O-])cc2)o1)OC(C)C [Compound A-35] | 0.0412
25 | CCCNC(=Nc1nc(C)ncc1CSc1nnc(-c2ccc([N+](=O)[O-])cc2)o1)SC [Compound A-4] | 0.37
26 | CCNC(=Nc1nc(C)ncc1C(C)Sc1nnc(-c2ccc([N+](=O)[O-])cc2)o1)SC (racemic) [Compound A-22] | 1.11
27 | CNC(=Nc1nc(C)ncc1CSc1nnc(-c2ccc(N)cc2)o1)SC [Compound A-10] | 1.11
28 | CCNC(=Nc1nc(C)ncc1C(C)Sc1nnc(-c2ccc([N+](=O)[O-])cc2)o1)NCC (racemic) [Compound A-23] | 3.33

test system: DT-C cells (pGV-P transfected v-ki-ras-transformed NIH373 cells); assay: Luciferase activity of DT-C control cells (IC50-C), index of non-specific transcription-inhibitory effect or cytotoxicity; format: cell-based; settings: tested concentration nearest to 50% inhibition in DT-C cells
Text: as §3, §4, §5, §6, §7, §8, §9, §10, §11, §12, §13
b) Among the points of concentration tested, the concentration which is the nearest to 50% inhibition concentration at DT-C cells (IC50-C), was shown as an index of non-specific transcription-inhibitory effect or of cytotoxicity. In case of positive compounds, 50% inhibition concentration in DT-C cells which was higher than the active concentration was expressed as IC50-C.

Row | Structure (SMILES) | IC50 (IC50-C) [µg/mL]
29 | CNC(=Nc1nc(C)ncc1CSc1nnc(-c2ccc([N+](=O)[O-])cc2)o1)OC(C)C [Compound A-34] | >10
30 | CCNC(=Nc1nc(C)ncc1CSc1nnc(-c2ccc([N+](=O)[O-])cc2)o1)OC(C)C [Compound A-35] | >10
31 | CCCNC(=Nc1nc(C)ncc1CSc1nnc(-c2ccc([N+](=O)[O-])cc2)o1)SC [Compound A-4] | >10
32 | CCNC(=Nc1nc(C)ncc1C(C)Sc1nnc(-c2ccc([N+](=O)[O-])cc2)o1)SC (racemic) [Compound A-22] | >10
33 | CNC(=Nc1nc(C)ncc1CSc1nnc(-c2ccc(N)cc2)o1)SC [Compound A-10] | >10
34 | CCNC(=Nc1nc(C)ncc1C(C)Sc1nnc(-c2ccc([N+](=O)[O-])cc2)o1)NCC (racemic) [Compound A-23] | >10
